{"source": "patent US10501449B2", "about": "(priority 2018, dated 2019)"}
{"target": "hERG channels (Homo sapiens (Human), UniProt Q12809)", "sequence (Q12809 whole entry)": "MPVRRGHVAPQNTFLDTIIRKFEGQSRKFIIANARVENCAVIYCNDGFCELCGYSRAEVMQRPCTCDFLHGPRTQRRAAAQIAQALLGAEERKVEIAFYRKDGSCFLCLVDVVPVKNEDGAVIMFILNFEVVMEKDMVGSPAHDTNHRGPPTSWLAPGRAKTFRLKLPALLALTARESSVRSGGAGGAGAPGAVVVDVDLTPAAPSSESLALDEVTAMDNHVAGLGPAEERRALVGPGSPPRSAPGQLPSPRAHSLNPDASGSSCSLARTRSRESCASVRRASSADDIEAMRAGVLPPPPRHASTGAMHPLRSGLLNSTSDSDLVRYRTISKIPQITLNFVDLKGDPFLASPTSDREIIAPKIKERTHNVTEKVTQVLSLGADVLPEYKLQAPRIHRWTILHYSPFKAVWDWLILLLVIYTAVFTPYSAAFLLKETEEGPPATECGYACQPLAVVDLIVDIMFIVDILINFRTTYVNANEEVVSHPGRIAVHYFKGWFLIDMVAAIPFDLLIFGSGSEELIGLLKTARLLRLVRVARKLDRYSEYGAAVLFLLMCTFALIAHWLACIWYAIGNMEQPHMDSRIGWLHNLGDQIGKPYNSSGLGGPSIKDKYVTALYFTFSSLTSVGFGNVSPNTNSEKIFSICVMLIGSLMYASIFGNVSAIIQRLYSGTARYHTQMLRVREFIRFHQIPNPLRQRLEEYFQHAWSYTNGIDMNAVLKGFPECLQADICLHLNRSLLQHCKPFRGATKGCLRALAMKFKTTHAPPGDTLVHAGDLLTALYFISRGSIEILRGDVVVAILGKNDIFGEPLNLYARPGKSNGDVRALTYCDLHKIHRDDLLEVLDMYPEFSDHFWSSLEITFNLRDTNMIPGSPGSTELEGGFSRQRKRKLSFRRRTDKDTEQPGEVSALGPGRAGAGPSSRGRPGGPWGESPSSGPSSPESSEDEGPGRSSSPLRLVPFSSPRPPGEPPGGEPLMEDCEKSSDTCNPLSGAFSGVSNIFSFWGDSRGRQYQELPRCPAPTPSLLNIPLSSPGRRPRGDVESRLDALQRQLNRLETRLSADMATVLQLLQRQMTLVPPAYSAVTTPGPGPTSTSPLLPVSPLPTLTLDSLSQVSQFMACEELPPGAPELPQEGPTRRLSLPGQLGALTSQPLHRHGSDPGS", "experiment": "hERG Manual Patch Clamp Assay", "type": "cell-based", "settings": "human, HEK 293 cells stably expressing hERG channels, pH 7.4, 1 uM, read-out: hERG EP % Inh @ 1 uM", "units": {"inhibition at 1 µM": "%"}}
{"smiles": "COc1cc(-n2cc(CN3CC(CO)NC(c4ccc5c(c4C)COC5=O)C3)cn2)ncc1C#N", "note": "(single isomer, unassigned) [Example 89-III]", "inhibition at 1 µM": 14}
{"smiles": "COc1cc(N2CCC(CN3CCN[C@H](c4ccc5c(c4C)COC5=O)C3)C2)ncc1C#N", "note": "(single isomer, unassigned) [Example 154-I]", "inhibition at 1 µM": 43}
{"smiles": "Cc1cc(-n2cc(CN3CC(c4ccc5c(c4C)COC5=O)OC(C)(C)C3)cn2)ncc1C#N", "note": "(single isomer, unassigned) [Example 256-II, 6-(4-((2,2-dimethyl-6-(4-methyl-1-oxo-1,3-dihydroisobenzofuran-5-yl)morpholino)methyl)-1H-pyrazol-1-yl)-4-methylnicotinonitrile]", "inhibition at 1 µM": 13}
{"smiles": "Cc1cc(-n2cc(CN3CC(=O)N[C@H](c4ccc5c(c4C)COC5=O)C3)cn2)ncc1C#N", "note": "[Example 15-I, (R)-4-methyl-6-(4-((3-(4-methyl-1-oxo-1,3-dihydroisobenzofuran-5-yl)-5-oxopiperazin-1-yl)methyl)-1H-pyrazol-1-yl)nicotinonitrile]", "inhibition at 1 µM": 5.8}
{"smiles": "Cc1c([C@@H]2CN(Cc3cnn(-c4ccc(C#N)nc4)c3)CCO2)ccc2c1COC2=O", "note": "[Example 48-I, (R)-5-(4-((2-(4-methyl-1-oxo-1,3-dihydroiso-benzofuran-5-yl)morpho-lino)methyl)-1H-pyrazol-1-yl)picolinonitrile]", "inhibition at 1 µM": 78}
{"smiles": "COc1cc(-n2cc(CN3CCO[C@H](c4ccc5c(c4C)COC5=O)C3)cn2)ccc1C#N", "note": "[Example 49-I, (R)-2-methoxy-4-(4-((2-(4-methyl-1-oxo-1,3-dihydroisobenzofuran-5-yl)morpholino)methyl)-1H-pyrazol-1-yl) benzonitrile]", "inhibition at 1 µM": 27}
{"smiles": "Cc1cc(-n2cnc(CN3C[C@@H](c4ccc5c(c4C)COC5=O)N[C@@H](C)C3)c2)ncc1C#N", "note": "[Example 98-I, 4-methyl-6-(4-(((3S,5R)-3-methyl-5-(4-methyl-1-oxo-1,3-dihydroisobenzofur-an-5-yl)piperazin-1-yl)methyl)-1H-imidazol-1-yl)nicotinonitrile]", "inhibition at 1 µM": 9.3}
{"smiles": "COc1cc(-n2ncc(CN3CC[C@@H](O)[C@H](c4ccc5c(c4C)COC5=O)C3)n2)ncc1C#N", "note": "[Example 111-I, 6-(4-(((3R,4R)-4-hydroxy-3-(4-methyl-1-oxo-1,3-dihydroisobenzofur-an-5-yl)piperidin-1-yl)methyl)-2H-1,2,3-triazol-2-yl)-4-methoxynicotinonit-rile]", "inhibition at 1 µM": 5.1}
{"smiles": "Cc1cc(-n2cc(CN3CCNC(c4ccc5c(c4C)COC5=O)C3C)cn2)ncc1C#N", "note": "(stereo not drawn) [Example 115-I, 4-methyl-6-(4-((2-methyl-3-(4-methyl-1-oxo-1,3-dihydroisobenzofuran-5-yl)piperazin-1-yl)methyl)-1H-pyrazol-1-yl)nicotinonitrile]", "inhibition at 1 µM": 45}
{"smiles": "Cc1cn(-c2ccc(CN3CCN[C@H](c4ccc5c(c4C)COC5=O)C3)nn2)cn1", "note": "[Example 153-I, (R)-4-methyl-5-(4-((6-(4-methyl-1H-imidazol-1-yl)pyridazin-3-yl)methyl)piperazin-2-yl)isobenzofuran-1(3H)-one]", "inhibition at 1 µM": 10}
{"smiles": "Cc1cc(-n2nc(C)c(CN3CCN[C@H](c4ccc5c(c4C)COC5=O)C3)n2)ncc1C#N", "note": "[Example 169-I, (R)-4-methyl-6-(4-methyl-5-((3-(4-methyl-1-oxo-1,3-dihydroisobenzofuran-5-yl)piperazin-1-yl)methyl)-2H-1,2,3-triazol-2-yl)nicotinonitrile]", "inhibition at 1 µM": 12}
{"smiles": "Cc1c([C@@H]2CN(Cc3cnn(-c4cc(C(F)(F)F)c(C#N)cn4)c3)C[C@H](C)N2)ccc2c1COC2=O", "note": "[Example 196-I, 6-(4-(((3S,5R)-3-methyl-5-(4-methyl-1-oxo-1,3-dihydroisobenzofuran-5-yl)piperazin-1-yl)methyl)-1H-pyraozl-1-yl)-4-(trifluoromethyl)nicotinonitrile]", "inhibition at 1 µM": 18}
{"smiles": "Cc1c([C@@H]2CN(Cc3cnc(-n4cnc(C(F)(F)F)c4)nc3)CCN2)ccc2c1COC2=O", "note": "[Example 236-I, (R)-4-methyl-5-(4-((2-(4-(triflouromethyl)-1H-imidazol-1-yl)pyrimidin-5-yl)methyl)piperazin-2-yl)isobenzofuran-1(3H)-one]", "inhibition at 1 µM": 20}
{"smiles": "[2H]C([2H])([2H])Oc1cc(-n2cc(CN3CCN[C@H](c4ccc5c(c4C)COC5=O)C3)nn2)ncc1C#N", "note": "[Example 263-I, (R)-4-(methoxy-d3)-6-(4-((3-(4-methyl-1-oxo-1,3-dihydroisobenzofuran-5-yl)piperazin-1-yl)methyl)-1H-1,2,3-triazol-1-yl)nicotinonitrile]", "inhibition at 1 µM": 10}
{"smiles": "Cc1c([C@@H]2CN(Cc3cn(-c4ccnc(C(F)F)c4)c(=O)n3C)C[C@H](C)N2)ccc2c1COC2=O", "note": "[Example 276-I, 1-(2-(difluoromethyl)pyridin-4-yl)-3-methyl-4-(((3S,5R)-3-methyl-5-(4-methyl-1-oxo-1,3-dihydroisobenzofuran-5-yl)piperazin-1-yl)methyl)-1,3-dihydro-2H-imidazol-2-one]", "inhibition at 1 µM": 5.4}
{"target": "hROMK (human Kir1.1) (Homo sapiens (Human), UniProt P48048)", "sequence (P48048 whole entry)": "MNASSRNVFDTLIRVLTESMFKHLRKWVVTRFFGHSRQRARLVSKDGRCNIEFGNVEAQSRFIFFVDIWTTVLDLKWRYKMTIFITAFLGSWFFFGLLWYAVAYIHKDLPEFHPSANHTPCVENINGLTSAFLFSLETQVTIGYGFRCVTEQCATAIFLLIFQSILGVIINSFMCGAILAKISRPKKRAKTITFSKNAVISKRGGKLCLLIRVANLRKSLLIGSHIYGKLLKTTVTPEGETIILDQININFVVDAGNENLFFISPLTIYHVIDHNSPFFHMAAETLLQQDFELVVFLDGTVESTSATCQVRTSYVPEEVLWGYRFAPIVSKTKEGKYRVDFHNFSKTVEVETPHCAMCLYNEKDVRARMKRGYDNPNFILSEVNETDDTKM", "experiment": "cell-based", "settings": "CHO T-Rex hROMK stable cell line; thallium flux; 10-point concentration response curve; read-out: Human ROMK Th Flux IC50", "units": {"IC50": "nM"}, "experimental": "Solutions and reagents: Thallium flux assay was performed using FluxOR kit (F10017, Life Technologies). Loading buffer, assay buffer and stimulus buffer were prepared using kit components. HBSS (Hank's balanced salt solution, Cat#14025-092) was purchased separately from Life Technologies.\nTo prepare 10 ml of loading buffer: 10 μl of FluxOR dye (reconstituted in DMSO) was first added to 100 μl of powerload concentrate and this mix along with 100 μl of Probenicid (100×) was then added to 9.79 ml of HBSS. Assay buffer (10 ml) was prepared by addition of 2 ml of FluxOR chloride free buffer (5×), 100 μl of Probenicid (100×), and 0.2 ml of Ouabain (13.77 mM) to 7.7 ml of deionized water. Stimulus buffer was composed of 15 mM Tl2SO4, 0.75 mM K2SO4 in FluxOR chloride free buffer (diluted to 1× using deionized water). The final concentration of Tl2SO4 and K2SO4 in the assay plate was 3 mM and 0.15 mM, respectively.\nPlating and induction of cells: The CHO T-Rex hROMK (human Kir1.1) stable cell line was maintained in Ham's F12 media supplemented with 10% FBS, 1% Penicillin-Streptomycin, 500 μg/ml Zeocin and 10 μg/ml Blasticidin at 37° C. in a 5% CO2 incubator. One day before the experiment, the cells were dissociated by incubation with Versene solution (15040-066, Life Technologies) for 10 minutes at 37° C. followed by addition of growth media. The cell suspension was centrifuged at 1200 rpm for 5 min. After discarding the supernatant, the cells were resuspended in fresh growth media and cell concentration was determined using a hemocytometer. Next, 0.5 μg/ml of Doxycycline was added to the cell suspension to induce hROMK channel expression and 50 μl (10,000 cells/well) of cell suspension was added to each well of a poly-D lysine coated 384 well black, optically clear bottom plate (6007718, Perkin Elmer). The assay plate was kept at 37° C. in a 5% CO2 incubator.\nAssay protocol: On the day of experiment, media was removed and loading buffer was added (30 μl/well) to the assay plate. The cells were incubated in the loading buffer for 30 minutes at 37° C. The loading buffer was then replaced by assay buffer (30 μl/well) followed by addition of test compounds or controls. The cells were incubated with compounds for 30 minutes and the plate was then mounted on FlexStation (Molecular Devices) for fluorescence read out with excitation and emission wavelengths at 488 and 525 nm, respectively. Each well was read for 90 sec at 2 sec interval and the stimulus buffer was added after 20 seconds of baseline recording. The final DMSO concentration was either 0.5 or 1% in the assay plate. Positive and negative controls were defined by addition of DMSO or 3 μM of a standard ROMK inhibitor, respectively, to the wells instead of a test compound.\nA 10-point concentration response curve was used to estimate the IC50 value of test compounds."}
{"smiles": "COc1cc(N2CC(CN3C[C@@H](c4ccc5c(c4C)COC5=O)N[C@@H](C)C3)CC2=O)ccn1", "note": "(stereo partly drawn) [Example 254-I, 1-(2-methoxypyridin-4-yl)-4-(((3S,5R)-3-methyl-5-(4-methyl-1-oxo-1,3-dihydroisobenzofuran-5-yl)piperazin-1-yl)methyl)pyrrolidin-2-one]", "IC50": 1600}
{"smiles": "CNC(=O)c1nn(-c2cc(OC)c(C#N)cn2)cc1CN1CCN[C@H](c2ccc3c(c2C)COC3=O)C1", "note": "[Example 260-I, (R)-1-(5-cyano-4-methoxypyridin-2-yl)-N-methyl-4-((3-(4-methyl-1-oxo-1,3-dihydroisobenzofuran-5-yl)piperazin-1-yl)methyl)-1H-pyraozl-3-carboxamide]", "IC50": 430}
{"smiles": "COc1cc(-n2cc(CN3CCN[C@H](c4ccc5c(c4C)COC5=O)C3)c(C(N)=O)n2)ncc1C#N", "note": "[Example 262-I, (R)-1-(5-cyano-4-methoxypyridin-2-yl)-4-((3-(4-methyl-1-oxo-1,3-dihydroisobenzofuran-5-yl)piperazin-1-yl)methyl)-1H-pyrazole-3-carboxamide]", "IC50": 120}
{"smiles": "Cc1noc(-c2ccc(CN3CCN[C@H](c4ccc5c(c4C)COC5=O)C3)cn2)n1", "note": "[Example 264-I, (R)-4-methyl-5-(4-((6-(3-methyl-1,2,4-oxadiazol-5-yl)pyridin-3-yl)methyl)piperazin-2-yl)isobenzofuran-1(3H)-one]", "IC50": 580}
{"smiles": "Cc1c([C@@H]2CN(Cc3cnn(-c4ccn(C(F)F)c(=O)c4)n3)C[C@H](C)N2)ccc2c1COC2=O", "note": "[Example 270-I, 1-(difluoromethyl)-4-(4-(((3S,5R)-3-methyl-5-(4-methyl-1-oxo-1,3-dihydroisobenzofuran-5-yl)piperazin-1-yl)methyl)-2H-1,2,3-triazol-2-yl)pyridin-2(1H)-one]", "IC50": 580}
{"smiles": "Cc1c([C@@H]2CN(Cc3cn(-c4ccnc(C(F)F)n4)cn3)C[C@H](C)N2)ccc2c1COC2=O", "note": "[Example 271-I, 5-((2R,6S)-4-((1-(2-(difluoromethyl)pyrimidin-4-yl)-1H-imidazol-4-yl)methyl)-6-methylpiperazin-2-yl)-4-methylisobenzofuran-1(3H)-one]", "IC50": 100}
